Compound: Cc1ccc2nc(NCCN)c3ncc(C)n3c2c1
Test: relative viability (nuclei count vs DMSO), 5 days (fraction); higher = more cells survive
Conditions: 4 µM
Method in brief: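 Lung cancer cell lines in 1536-well plates were kept overnight at 37 °C, then pinned with five library-drug doses (not always all listed) spaced by √10 on vehicle-anchored plates. After 5 days without medium change, cells were fixed, permeabilised and Hoechst-stained in one step, imaged at 4×, and nuclei were counted with MetaXpress. Viability is treated-well nuclei divided by vehicle-well nuclei, taken as the median over plates. Plates passed only with control CV below 25% and at least one doubling.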

Cell Line | relative viability
PC-3 [JPC-3] | 0.998

Compound: O=C(/C=C/c1ccccc1)NC(NC(=S)Nc1cccc2cccnc12)C(Cl)(Cl)Cl [Salubrinal] + CS(=O)(=O)CCNCc1ccc(-c2ccc3ncnc(Nc4ccc(OCc5cccc(F)c5)c(Cl)c4)c3c2)o1 [Lapatinib] (partner 2 µM)
Test: relative viability (nuclei count vs DMSO), 5 days (fraction); higher = more cells survive
Conditions: first compound 0.08 µM
Method in brief: (§1)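 Relative viability divides the nuclei count in treated wells by that in vehicle wells. Lung cancer cell lines were seeded in 1536-well plates, dosed by pin tool the next day, and fixed and stained after 5 days in one step with final 0.05% Triton X-100, 1% formaldehyde and 1 ug/ml Hoechst. Dosing was a single drug or a fixed anchor-drug dose plus five library-drug doses (not always all listed) in √10 steps, and values are medians of duplicate plates imaged at 4×.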

Cell Line | relative viability
SK-LU-1 | 0.972
NCI-H1395 | 0.953
201T | 1.03
NCI-H1915 | 0.981
HCC-827 | 0.191
LXF-289 | 0.984
NCI-H23 | 1.08
NCI-H1299 | 0.96
NCI-H647 | 1.31
CAL-12T | 0.804
NCI-H1651 | 1.01
EPLC-272H | 0.838
NCI-H2228 | 1.29
NCI-H1792 | 1.11
NCI-H1355 | 1.09
NCI-H3122 | 1.12
NCI-H1437 | 0.925
NCI-H1755 | 1.24
NCI-H2023 | 0.747
HCC-15 | 0.902
PC-14 | 0.412
EKVX | 0.2
LC-2-ad | 1.07
NCI-H1563 | 0.992
NCI-H1975 | 1.04
RERF-LC-KJ | 0.871
ABC-1 | 1.46
NCI-H1944 | 0.583
NCI-H650 | 0.696
PC-3 [JPC-3] | 0.436

Same assay, conditions: first compound 0.253 µM

Cell Line | relative viability
SK-LU-1 | 0.874
NCI-H1395 | 0.973
201T | 1.06
NCI-H1915 | 0.683
HCC-827 | 0.196
LXF-289 | 0.778
NCI-H23 | 1.1
NCI-H1299 | 0.924
NCI-H647 | 0.687
CAL-12T | 0.688
NCI-H1651 | 0.77
EPLC-272H | 0.804
NCI-H2228 | 0.775
NCI-H1355 | 1.03
NCI-H3122 | 1.02
NCI-H1437 | 0.763
NCI-H1755 | 0.794
NCI-H2023 | 0.936
HCC-15 | 0.736
PC-14 | 0.347
EKVX | 0.239
LC-2-ad | 0.608
NCI-H1563 | 1.05
NCI-H1975 | 0.594
RERF-LC-KJ | 0.75
ABC-1 | 1.35
NCI-H1944 | 0.899
NCI-H650 | 0.84
PC-3 [JPC-3] | 0.423

Same assay, conditions: first compound 0.8 µM

Cell Line | relative viability
SK-LU-1 | 0.899
NCI-H1395 | 1.2
201T | 1.06
NCI-H1915 | 1.04
HCC-827 | 0.171
LXF-289 | 0.913
NCI-H23 | 1.34
NCI-H1299 | 0.98
NCI-H647 | 1.31
CAL-12T | 0.629
NCI-H1651 | 1.07
EPLC-272H | 1.32
NCI-H2228 | 1.35
NCI-H1792 | 1.64
NCI-H1355 | 0.996
NCI-H3122 | 1.04
NCI-H1437 | 0.94
NCI-H1755 | 1.11
NCI-H2023 | 1.04
HCC-15 | 1
PC-14 | 0.331
EKVX | 0.199
LC-2-ad | 1.1
NCI-H1563 | 0.975
NCI-H1975 | 0.967
RERF-LC-KJ | 0.837
ABC-1 | 1.17
NCI-H1944 | 0.804
NCI-H650 | 1.42
PC-3 [JPC-3] | 0.459

Same assay, conditions: first compound 2.53 µM

Cell Line | relative viability
SK-LU-1 | 0.926
NCI-H1395 | 0.819
201T | 1.07
NCI-H1915 | 1
HCC-827 | 0.235
LXF-289 | 0.931
NCI-H23 | 0.955
NCI-H1299 | 0.918
NCI-H647 | 1.2
CAL-12T | 0.663
EPLC-272H | 0.93
NCI-H2228 | 1.08
NCI-H1792 | 0.914
NCI-H1355 | 1.01
NCI-H3122 | 1.1
NCI-H1437 | 0.878
NCI-H1755 | 1.04
NCI-H2023 | 0.814
HCC-15 | 0.88
PC-14 | 0.29
EKVX | 0.181
LC-2-ad | 0.971
NCI-H1563 | 0.886
NCI-H1975 | 0.928
RERF-LC-KJ | 0.828
ABC-1 | 1.25
NCI-H1944 | 0.902
NCI-H650 | 1.05
PC-3 [JPC-3] | 0.484

Same assay, conditions: first compound 8 µM

Cell Line | relative viability
SK-LU-1 | 0.703
NCI-H1395 | 0.858
201T | 1.06
NCI-H1915 | 0.963
HCC-827 | 0.165
LXF-289 | 0.804
NCI-H23 | 1.36
NCI-H1299 | 0.883
NCI-H647 | 0.829
CAL-12T | 0.636
NCI-H1651 | 0.816
EPLC-272H | 0.761
NCI-H2228 | 0.743
NCI-H1792 | 0.873
NCI-H1355 | 1.03
NCI-H3122 | 0.959
NCI-H1437 | 0.653
NCI-H1755 | 0.966
NCI-H2023 | 0.606
HCC-15 | 0.875
PC-14 | 0.382
EKVX | 0.216
LC-2-ad | 0.868
NCI-H1563 | 0.882
NCI-H1975 | 0.798
RERF-LC-KJ | 0.822
ABC-1 | 1.15
NCI-H1944 | 0.846
NCI-H650 | 0.822
PC-3 [JPC-3] | 0.472

Compound: Cc1ccc2nc(NCCN)c3ncc(C)n3c2c1 + CS(=O)(=O)N1CCN(Cc2cc3nc(-c4cccc5[nH]ncc45)nc(N4CCOCC4)c3s2)CC1 [Pictilisib] (partner 1 µM)
Test: as above
Conditions: first compound 0.04 µM
Method in brief: as §1

Cell Line | relative viability
SK-LU-1 | 0.573
NCI-H1395 | 0.689
201T | 0.701
NCI-H1915 | 0.969
HCC-827 | 0.947
LXF-289 | 0.912
NCI-H23 | 0.549
NCI-H1299 | 0.864
NCI-H647 | 0.552
CAL-12T | 0.521
NCI-H1651 | 0.512
EPLC-272H | 0.33
NCI-H2228 | 0.464
NCI-H1792 | 0.348
NCI-H1355 | 0.46
NCI-H3122 | 0.646
NCI-H1437 | 0.427
NCI-H1755 | 0.485
NCI-H2023 | 0.222
HCC-15 | 0.799
PC-14 | 0.753
EKVX | 0.406
LC-2-ad | 0.504
NCI-H1563 | 0.706
NCI-H1975 | 0.317
RERF-LC-KJ | 0.511
ABC-1 | 0.721
NCI-H1944 | 0.331
NCI-H650 | 0.927
PC-3 [JPC-3] | 0.758

Same assay, conditions: first compound 0.1265 µM

Cell Line | relative viability
SK-LU-1 | 0.507
NCI-H1395 | 0.638
201T | 0.716
HCC-827 | 0.929
LXF-289 | 0.795
NCI-H23 | 0.472
NCI-H1299 | 0.761
NCI-H647 | 0.409
CAL-12T | 0.517
NCI-H1651 | 0.477
EPLC-272H | 0.356
NCI-H2228 | 0.592
NCI-H1792 | 0.244
NCI-H1355 | 0.449
NCI-H3122 | 0.585
NCI-H1437 | 0.449
NCI-H1755 | 0.439
NCI-H2023 | 0.242
HCC-15 | 0.761
PC-14 | 0.736
EKVX | 0.356
LC-2-ad | 0.683
NCI-H1563 | 0.582
NCI-H1975 | 0.281
RERF-LC-KJ | 0.433
ABC-1 | 0.78
NCI-H1944 | 0.37
NCI-H650 | 0.827
PC-3 [JPC-3] | 0.752

Same assay, conditions: first compound 0.4 µM

Cell Line | relative viability
SK-LU-1 | 0.604
NCI-H1395 | 0.642
201T | 0.639
NCI-H1915 | 0.578
HCC-827 | 0.891
LXF-289 | 0.799
NCI-H23 | 0.446
NCI-H1299 | 0.735
NCI-H647 | 0.385
CAL-12T | 0.389
NCI-H1651 | 0.593
EPLC-272H | 0.288
NCI-H2228 | 0.417
NCI-H1792 | 0.309
NCI-H1355 | 0.406
NCI-H3122 | 0.541
NCI-H1437 | 0.443
NCI-H1755 | 0.476
NCI-H2023 | 0.238
HCC-15 | 0.666
PC-14 | 0.757
EKVX | 0.416
LC-2-ad | 0.439
NCI-H1563 | 0.701
NCI-H1975 | 0.245
RERF-LC-KJ | 0.44
ABC-1 | 0.822
NCI-H1944 | 0.319
NCI-H650 | 0.785
PC-3 [JPC-3] | 0.731

Same assay, conditions: first compound 1.265 µM

Cell Line | relative viability
SK-LU-1 | 0.562
NCI-H1395 | 0.828
201T | 0.66
NCI-H1915 | 0.939
HCC-827 | 0.86
LXF-289 | 0.765
NCI-H23 | 0.462
NCI-H1299 | 0.55
NCI-H647 | 0.44
CAL-12T | 0.364
NCI-H1651 | 0.589
EPLC-272H | 0.336
NCI-H2228 | 0.272
NCI-H1792 | 0.259
NCI-H1355 | 0.392
NCI-H3122 | 0.735
NCI-H1437 | 0.369
NCI-H1755 | 0.39
NCI-H2023 | 0.288
HCC-15 | 0.707
PC-14 | 0.481
EKVX | 0.329
LC-2-ad | 0.429
NCI-H1563 | 0.607
NCI-H1975 | 0.261
RERF-LC-KJ | 0.542
ABC-1 | 0.813
NCI-H1944 | 0.363
NCI-H650 | 0.767
PC-3 [JPC-3] | 0.725

Same assay, conditions: first compound 4 µM

Cell Line | relative viability
SK-LU-1 | 0.291
NCI-H1395 | 0.551
201T | 0.652
NCI-H1915 | 0.923
HCC-827 | 1.07
LXF-289 | 0.723
NCI-H23 | 0.466
NCI-H1299 | 0.263
NCI-H647 | 0.373
CAL-12T | 0.232
NCI-H1651 | 0.506
EPLC-272H | 0.306
NCI-H2228 | 0.369
NCI-H1792 | 0.242
NCI-H1355 | 0.386
NCI-H3122 | 0.672
NCI-H1437 | 0.374
NCI-H1755 | 0.411
NCI-H2023 | 0.201
HCC-15 | 0.694
PC-14 | 0.583
EKVX | 0.338
LC-2-ad | 0.423
NCI-H1563 | 0.633
NCI-H1975 | 0.242
RERF-LC-KJ | 0.501
ABC-1 | 0.678
NCI-H1944 | 0.328
NCI-H650 | 0.946
PC-3 [JPC-3] | 0.7
